Data from PubChem BioAssay (NCI).
Several values for one entry are separate records, joined by “and”; a condition that tells them apart may be missing. Identical values can stand only once.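 48-hour exposure; five concentrations; linearly interpolated endpoints. Abbreviation: GI50, concentration required for 50% inhibition of growth. Definition used: TGI = concentration required for complete inhibition of growth.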

What was measured:
Assay in all cases: DTP human tumour cell line panel, 48 h
COLO 205 colon = test system: COLO 205 colon
HCC-2998 colon = test system: HCC-2998 colon
HT29 colon = test system: HT29 colon
OVCAR-5 ovarian = test system: OVCAR-5 ovarian
SK-MEL-2 melanoma = test system: SK-MEL-2 melanoma
SN12C renal = test system: SN12C renal
UO-31 renal = test system: UO-31 renal
HL-60(TB) leukemia = test system: HL-60(TB) leukemia
HS 578T breast = test system: HS 578T breast

CCOc1cc2c(cnc3c4cc(OC)c(OC)cc4ccc23)cc1OC
TGI (COLO 205 colon): > 100 µM | TGI (HCC-2998 colon): > 100 µM | TGI (HT29 colon): > 100 µM | TGI (OVCAR-5 ovarian): > 100 µM | TGI (SK-MEL-2 melanoma): > 100 µM | TGI (SN12C renal): > 100 µM | TGI (UO-31 renal): > 100 µM

COC1/C(=C\C(=O)OC(C)(C)C)c2ccccc2N1C(C)=O (configuration not stated)
TGI (COLO 205 colon): > 100 µM | TGI (HCC-2998 colon): > 100 µM | TGI (HL-60(TB) leukemia): > 100 µM | TGI (HT29 colon): > 100 µM | TGI (SK-MEL-2 melanoma): > 100 µM | TGI (SN12C renal): > 100 µM | TGI (UO-31 renal): > 100 µM

CC(=O)OCC1OC(OC2CC3C(C)(C)C(OC(C)=O)CC[C@]3(C)C3CCC45CC4(CC[C@H]5C(C)CC(O)[C@@H](O)C(C)(C)O)[C@]23C)C(O)C(O)C1O (some centres not stated)
GI50 (COLO 205 colon): 1.93 µM | TGI (COLO 205 colon): 14 µM and 3.95 µM | TGI (HCC-2998 colon): 12.9 µM | GI50 (HL-60(TB) leukemia): 2.45 µM | TGI (HL-60(TB) leukemia): 11.9 µM and 5.3 µM | GI50 (HT29 colon): 3.37 µM | TGI (HT29 colon): 14.3 µM and 10.6 µM | GI50 (OVCAR-5 ovarian): 14.6 µM | TGI (OVCAR-5 ovarian): 13.9 µM and 27.9 µM | GI50 (SK-MEL-2 melanoma): 2.87 µM | TGI (SK-MEL-2 melanoma): 16.8 µM and 7.36 µM | TGI (SN12C renal): 13.2 µM and 19.1 µM | GI50 (UO-31 renal): 18.5 µM | TGI (UO-31 renal): 12.3 µM and 32.5 µM

N#CCc1ccc(C(C#N)/C(CCCC(=O)Nc2cccc([N+](=O)[O-])c2)=N\NC(=O)NN)cc1 (configuration not stated)
TGI (COLO 205 colon): > 100 µM | TGI (HCC-2998 colon): > 100 µM | TGI (HL-60(TB) leukemia): > 100 µM | TGI (HT29 colon): > 100 µM | TGI (OVCAR-5 ovarian): > 100 µM | TGI (SK-MEL-2 melanoma): > 100 µM | TGI (SN12C renal): > 100 µM | TGI (UO-31 renal): > 100 µM

COc1ccc2c([nH]c3cc(O)c(C)cc32)c1C=O
TGI (COLO 205 colon): > 25 µM | TGI (HCC-2998 colon): > 25 µM | TGI (HL-60(TB) leukemia): > 25 µM | TGI (HT29 colon): > 25 µM | TGI (OVCAR-5 ovarian): > 25 µM | TGI (SK-MEL-2 melanoma): > 25 µM | TGI (SN12C renal): > 25 µM | TGI (UO-31 renal): > 25 µM

CC(=O)NC1=C(Nc2ccc(C)cc2)C(=O)c2ccccc2C1=O
TGI (COLO 205 colon): 45.3 µM | TGI (HCC-2998 colon): > 75 µM | TGI (HL-60(TB) leukemia): 41.1 µM | TGI (HT29 colon): 31.9 µM | TGI (OVCAR-5 ovarian): 27.4 µM | TGI (SK-MEL-2 melanoma): 56.7 µM | TGI (SN12C renal): 44 µM | TGI (UO-31 renal): > 75 µM

O=C1CCCCCCCCCCC(=O)C2CCOCCOCCOCCC1Cc1cccc(n1)C2
TGI (COLO 205 colon): > 100 µM | TGI (HCC-2998 colon): > 100 µM | TGI (HT29 colon): > 100 µM | TGI (SK-MEL-2 melanoma): > 100 µM | TGI (SN12C renal): > 100 µM | TGI (UO-31 renal): > 100 µM

CCCCCCCCCCC(C)CCCCCCC(=O)OCC(COP(=O)([O-])OCC[N+](C)(C)C)OC(=O)CCCCCCC(C)CCCCCCCCCC (configuration not stated)
TGI (COLO 205 colon): > 100 µM | TGI (HCC-2998 colon): > 100 µM | TGI (HL-60(TB) leukemia): > 100 µM | TGI (HT29 colon): > 100 µM | TGI (OVCAR-5 ovarian): > 100 µM | TGI (SK-MEL-2 melanoma): > 100 µM | TGI (SN12C renal): > 100 µM | TGI (UO-31 renal): > 100 µM

COc1cc2c(c(OC)c1OC)-c1ccc(SC)c(=O)cc1[C@@H](NC(=O)c1ccc(OC(C)=O)cc1)CC2
TGI (COLO 205 colon): 0.0405 µM | TGI (HCC-2998 colon): 0.0549 µM | TGI (HL-60(TB) leukemia): 20.5 µM | TGI (HT29 colon): 0.0653 µM | TGI (OVCAR-5 ovarian): 65.5 µM | TGI (SN12C renal): 18.8 µM | TGI (UO-31 renal): 73 µM

C1CNCCNCCNCCN1
TGI (COLO 205 colon): > 100 µM | TGI (HCC-2998 colon): > 100 µM | TGI (HL-60(TB) leukemia): > 100 µM | TGI (HT29 colon): > 100 µM | TGI (OVCAR-5 ovarian): > 100 µM | TGI (SK-MEL-2 melanoma): > 100 µM | TGI (SN12C renal): > 100 µM | TGI (UO-31 renal): > 100 µM

Clc1ccc(-n2nnc(C3=NCCCN3)c2-c2ccccc2)cc1
TGI (COLO 205 colon): > 100 µM | TGI (HCC-2998 colon): > 100 µM | TGI (HL-60(TB) leukemia): > 100 µM | TGI (HT29 colon): > 100 µM | TGI (OVCAR-5 ovarian): > 100 µM | TGI (SK-MEL-2 melanoma): > 100 µM | TGI (SN12C renal): > 100 µM | TGI (UO-31 renal): > 100 µM

C=CC[C@H]1C[C@@]2(C)OC[C@H](C(C)C)N2C1=O
TGI (COLO 205 colon): > 100 µM | TGI (HT29 colon): > 100 µM | TGI (OVCAR-5 ovarian): > 100 µM | TGI (SK-MEL-2 melanoma): > 100 µM | TGI (SN12C renal): > 100 µM

C[C@@H]1O[C@@H](O[C@@H]2[C@@H](O)[C@H](OCCc3ccc(O)c(O)c3)O[C@H](COC(=O)/C=C/c3ccc(O)c(O)c3)[C@H]2O)[C@H](O)[C@H](O)[C@H]1O
GI50 (COLO 205 colon): > 100 µM | TGI (COLO 205 colon): > 100 µM | GI50 (HL-60(TB) leukemia): 54.4 µM | TGI (HL-60(TB) leukemia): > 100 µM | GI50 (HS 578T breast): > 100 µM | TGI (HS 578T breast): > 100 µM | GI50 (OVCAR-5 ovarian): > 100 µM | TGI (OVCAR-5 ovarian): > 100 µM | GI50 (SK-MEL-2 melanoma): > 100 µM | TGI (SK-MEL-2 melanoma): > 100 µM | GI50 (SN12C renal): 68.7 µM | TGI (SN12C renal): > 100 µM | GI50 (UO-31 renal): > 100 µM | TGI (UO-31 renal): > 100 µM

c1nc2cscc2c2cscc12
TGI (HCC-2998 colon): > 100 µM | TGI (HL-60(TB) leukemia): > 100 µM | TGI (HT29 colon): > 100 µM | TGI (OVCAR-5 ovarian): > 100 µM | TGI (SK-MEL-2 melanoma): > 100 µM | TGI (SN12C renal): > 100 µM | TGI (UO-31 renal): > 100 µM

S=c1[nH]c(=S)c2sc(=S)n(-c3ccccc3)c2[nH]1
TGI (COLO 205 colon): > 100 µM | TGI (HCC-2998 colon): > 100 µM | TGI (HL-60(TB) leukemia): > 100 µM | TGI (HT29 colon): > 100 µM | TGI (OVCAR-5 ovarian): > 100 µM | TGI (SK-MEL-2 melanoma): > 100 µM | TGI (SN12C renal): > 100 µM | TGI (UO-31 renal): > 100 µM

CC(=O)[CH-]C(=O)c1ccccc1.CC(=O)[CH-]C(=O)c1ccccc1.CC(=O)[CH-]C(=O)c1ccccc1.[Tl+3]
GI50 (COLO 205 colon): 25.9 µM | TGI (COLO 205 colon): 97.7 µM | GI50 (HCC-2998 colon): 37.5 µM | TGI (HCC-2998 colon): > 100 µM | GI50 (HL-60(TB) leukemia): 4.83 µM | TGI (HL-60(TB) leukemia): 16.9 µM | GI50 (HT29 colon): 57.1 µM | TGI (HT29 colon): > 100 µM | GI50 (OVCAR-5 ovarian): > 100 µM | TGI (OVCAR-5 ovarian): > 100 µM | GI50 (SK-MEL-2 melanoma): 15.7 µM | TGI (SK-MEL-2 melanoma): > 100 µM | GI50 (SN12C renal): 72.6 µM | TGI (SN12C renal): > 100 µM | GI50 (UO-31 renal): 30.2 µM | TGI (UO-31 renal): > 100 µM

Cc1nc2c(=O)[nH]c(=O)n(C)c2[nH]c1=O
TGI (COLO 205 colon): > 100 µM | TGI (HCC-2998 colon): > 100 µM | TGI (HL-60(TB) leukemia): > 100 µM | TGI (HT29 colon): > 100 µM | TGI (OVCAR-5 ovarian): > 100 µM | TGI (SK-MEL-2 melanoma): > 100 µM | TGI (SN12C renal): > 100 µM | TGI (UO-31 renal): > 100 µM
